Structures are written as SMILES.

One may read the EC50 as the concentration giving half of the maximal effect.

Series [1] can be described thus: Microsomal assay: stability in human liver microsomes. The series is classed as in vitro ADME. To be noted: human, liver microsomes, pH 7.4, human liver microsomes, repeated assay (Table 3); read-out: t1/2 (min) Avg ± SD (n = 3). As to the method: Microsomal Assay. Human liver microsomes (20 mg/mL, pool of 50 individuals) were obtained from Xenotech LLC (Lenexa, Kans.). The incubation mixtures are prepared as follows. Stock solutions (10 mM) solutions of test Compounds 103, 106, 122 and of atazanavir were prepared in DMSO. The 10 mM stock solutions were diluted to 1 mM in acetonitrile (ACN). […] The microsome-test compound mixtures were added to wells of a 2 mL 96-well deep well polypropylene plate in triplicate. The plate was warmed to 37° C. before initiating the reactions by addition of prewarmed NADPH in 0.1 M potassium phosphate buffer, pH 7.4, containing 3 mM MgCl2. The final reaction mixture composition contained: • Liver Microsomes 0.5 mg/mL • NADPH 2 mM • Potassium Phosphate, pH 7.4 100 mM • Magnesium Chloride 3 mM • Test Compound 1.0 μM. The reaction mixtures were incubated at 37° C. and 50 μL aliquots were removed at 0, 3, 7, 12, 20, and 30 minutes and added to shallow-well 96-well plates which contained 50 μL of ice-cold ACN with internal standard to stop the reactions. The plates were stored at −20° C. for 30 minutes, after which 100 μL of water was added to the wells of the plate before centrifugation to pellet precipitated proteins. Supernatants were transferred to another 96-well plate and analyzed for amounts of parent remaining by LC-MS/MS using an Applied Biosystems API 4000 mass spectrometer. […] Data analysis was performed using Microsoft Excel Software. […] The results are shown in FIGS. 2 and 3 and in Table 3, below: […]

Another series has as its system HIV-1RF. Kind of series: HIV anti-viral activity in CEM-SS cells infected with HIV-1 (XTT). The series is classed as cell-based. To be noted: for EC50: Human immunodeficiency virus 1, CEM-SS. As for the experimental part:
The HIV antiviral activity of compound of the present invention was tested in CEM-SS cells infected with HIV-1. CEM-SS cells were passaged in T-75 flasks in RPMI 1640 medium supplemented with 10% heat inactivated fetal bovine serum, 2 mmol/L L-glutamine, 100 U/mL penicillin and 100 flg/mL streptomycin prior to use in the antiviral assay. On the day preceding the assay, the cells were split 1:2 to assure they were in an exponential growth phase at the time of infection. Total cell and viability quantification was performed using a hemocytometer and Trypan Blue dye exclusion. Cell viability was greater than 95% for the cells to be utilized in the assay. The cells were resuspended at 5×10^4 cells per mL in tissue culture medium and added to the drug-containing microtiter plates in a volume of 50 μL.
The virus used for the assay was the lymphocyte-tropic virus strain HIV-IRF. The virus was obtained from the NIH AIDS Research and Reference Reagent Program and stock virus pools were produced in CEM-SS cells. A pre-titered aliquot of virus was removed from the freezer (−80° C.) and allowed to thaw slowly to room temperature in a biological safety cabinet. Virus was resuspended and diluted into tissue culture medium such that the amount of virus added to each well in a volume of 50 μL was the amount determined to yield 85 to 95% cell killing at 6 days post-infection.
Each plate contains cell control wells (cells only), virus control wells (cells plus virus), compound toxicity wells (cells plus compound only), compound colorimetric control wells (compound only) as well as experimental wells (compound plus cells plus virus). Samples were tested in triplicate with eleven half-log dilutions per compound starting at 0.1 μM of compound. Compounds 104, 120 and 122 were tested, as was atazanavir and AZT. […]
Following incubation at 37° C. in a 5% CO2 incubator, the test plates were stained with the tetrazolium dye XTT (2,3-bis(2-methoxy-4-nitro-5sulfophenyl)-5-[(phenylamino)carbonyl]-2H-tetrazolium hydroxide). XTT-tetrazolium was metabolized by the mitochondrial enzymes of metabolically active cells to a soluble formazan product, allowing rapid quantitative analysis of the inhibition of HIV induced cell killing by anti-HIV test substances. XTT solution was prepared daily as a stock of 1 mg/mL in RPMI 1640. Phenazine methosulfate (PMS) solution was prepared at 0.15 mg/mL in PBS and stored in the dark at −20° C. XTT/PMS stock was prepared immediately before use by adding 40 μL of PMS per mL of XTT solution. Fifty microliters of XTT/PMS was added to each well of the plate and the plate was reincubated for 4 hours at 37° C. Plates were sealed with adhesive plate sealers and shaken gently or inverted several times to mix the soluble formazan product and the plate was read spectrophotometrically at 450/650 nm with a Molecular Devices Vmax plate reader.
Raw data was collected from the Softmax Pro 4.6 software and imported into a Microsoft Excel 2003 spreadsheet for analysis by linear curve fit calculations.

The nature of the next series: in vivo. Conditions: chimpanzee, po. As for the experimental part: (§1) Four chimps (two male and two female) were used in this study and were fasted overnight prior to administration of the compound solution. Animals were sedated with ketamine and/or telazol prior to dosing. Intravenous dosing was achieved by IV infusion over 30 minutes.
(§2) Approximately 4.5 mL of blood was collected into vacutainer tubes with sodium heparin as an anticoagulant at 0 (preinfusion), 15 min., 29.5 min (immediately before the end of the infusion), and then at 6, 15, 30, and 45 minutes, and 1, 2, 4, 6, 8, 10, 12, 24 hours after the infusion is stopped. A similar procedure was used to collect blood after oral dosing with samples taken at 0 (predose), 15, and 30 minutes, and at 1, 1.5, 2, 4, 6, 8, 10, 12, 24 hours postdose. Following sample collection, the vacutainer tubes were rocked by hand several times to insure adequate mixing. Blood samples were placed immediately on wet ice and centrifuged within 1 hour from time of collection. Following centrifugation, the resulting plasma was stored frozen at −70° C. until analysis. The results are summarized in FIGS. 4 and 5 and tables 6 and 7.
Run B: Same as Run A, except the dose was 150 mg orally of each of atazanavir and compounds 114 and 120, and the vehicle was 10 percent ethanol, 40 percent polypropylglycol in 2.5 percent citric acid.

The nature of series [2]: Chimp pharmacokinetics Run A, IV or PO co-dosing of atazanavir and Compounds 114, 120, 122. The class given is in vivo, chimpanzee. Conditions: for concentration at 24 h: concentration detected intact in urine. As to the method: Chimp Pharmacokineties. Run A: A 4 mg/mL solution of atazanavir and each of Compounds 114, 120 and 122 were prepared in 10% DMI (dimethyl isosorbide), 15% EtOH, 35% PG in D5W. Specifically, for each compound, 240 mgs of compound was dissolved in a solution composed of 6 mL of DMI, 9 mL of EtOH and 21 mL PG. Once the compound was fully dissolved, 24 mL of D5W was added and the solution mixed.
Fifty-five mL of each drug solution is then combined and the mixture was sterile filtered using a 0.2 μm filter. This produced 220 mL of a 1:1:1:1 mixture atazanavir:Compound 114:Compound 120:Compound 122. The final concentration of each drug in the solution was 1 mg/mL. Each animal received 50 mL of this solution through either IV or PO routes.
as §1, §2

On to `[2H]C([2H])([2H])OC(=O)N[C@H](C(=O)NN(Cc1ccc(-c2ccccn2)cc1)C[C@H](O)[C@H](Cc1ccccc1)NC(=O)[C@@H](NC(=O)OC([2H])([2H])[2H])C(C([2H])([2H])[2H])(C([2H])([2H])[2H])C([2H])([2H])[2H])C(C)(C)C` [Compound 120, 1,14-Di(methyl-d3)(3S,8S,9S,125)-3-(1,1-dimethylethyl)-12-[(1,1-dimethylethyl)-d9]-8-hydroxy-4,11-dioxo-9-(phenlymethyl)-6-[[4-(2-pyridinyl)phenyl]methyl]-2,5,6,10,13-pentaazatetradecanedioate], for which the half-life at 1 μM in series [1] was 26.9 ± 1.4 min. In addition, the “fold less potent in the presence of HSA than in cell culture medium alone” value in the series on HIV-1RF (10 mg/mL HSA versus cell culture medium) is reported as “two- to greater than three-fold less potent”. The EC50 was found to be 3 nM in the series on HIV-1RF (+0.5 mg/mL AAGP), 1 nM in the series on HIV-1RF (+10 mg/mL HAS), 4 nM with HIV-1RF (+AAGP + HSA) and 0.5 nM with HIV-1RF (No Serum Protein Added (cell culture medium)). Further, the “concentration detected intact in urine” value in the series “in vivo” (24 h) amounted to 5030 ng/mL; in series [2] (chimpanzee, in vivo, iv, 24 h), 3110 ng/mL; in series [2] (chimpanzee, in vivo, po, 24 h) it was 1110 ng/mL. The concentration at 24 h in the series “in vivo” (concentration detected intact in urine) came out at 2930 ng/mL; in series [2] (chimpanzee, in vivo, iv), 3030 ng/mL; in series [2] (chimpanzee, in vivo, po), 1230 ng/mL. Also, the “Ratio of urine concentration, compound:Atazanavir” value in series [2] (chimp A242E, PO, 24 hours, Run A) was determined as 2.16; in series [2] (chimp A336C, IV, 24 hours, Run A) it was 1.74; in series [2] (chimpanzee, in vivo, iv, 24 h), 1.52; in series [2] (chimpanzee, in vivo, po, 24 h) it was 2.15.

The values above are taken from patent publication US8258309B2, “Azapeptide derivatives” (priority 2007, dated 2012).
